# Several values for one entry are separate records, joined by “and”; a condition that tells them apart may be missing. Equal entries are not always repeated. Where two headings read alike, the source gives them in different places.
# Experiments:
# [1] = system: HCAR3; conditions: cited from earlier work; for higher affinity to HCAR3 than to HCAR2: HCAR3 vs HCAR2; for affinity difference to HCAR3 compared to HCAR2: previously reported
# [2] = biological target: T1, wild-type HCAR3 (Homo sapiens, UniProt P49019); test: Surface plasmon resonance measurement (Biacore X100), wild-type HCAR3; type: binding; conditions: 6O, PLA, IBC293, acifran compared
# T1 construct: expression of the entire length of human HCAR3 and HCAR2 proteins; FLAG (N); 3C protease cleavage site (N); His (C); made in house
# [3] = system: HCAR2 N86L; test: cAMP assay, homology-mutated HCAR2 at residue 86 (N86L); type: cell-based, human
# Description: The cAMP levels were quantified using the cAMP-Gi kit from Perkin Elmer (model TRF0263), adhering to the manufacturer’s guidelines. […] After 36 hours, the cells, once rinsed with PBS, were treated with a stimulation buffer,including 500 μM IBMX, and incubated for 30 min in a 384-well plate maintained at 37 °C, with a seeding density of 4,000 cells per well. This step was followed by the addition of 12 μM forskolin to each well, with the incubation continuing for an additional 45 min at the same temperature. Subsequently, each well received 5 μL of the cAMP Eu-cryptate solution and the anti-cAMP-d2 solution, and the mixture was incubated for 1 hour at room temperature [45]. […] The acquired data were analyzed using GraphPad Prism version 9.0, with statistical significance set at p < 0.05. All experimental procedures were replicated three times to ensure accuracy.
# [4] = biological target: T2, wild-type HCAR2 (Homo sapiens, UniProt Q8TDS4); type: binding; design: SPR sensorgram response, Acifran-HCAR2: unit not given here
# T2 construct: expression of the entire length of human HCAR3 and HCAR2 proteins; FLAG (N); 3C protease cleavage site (N); His (C); made in house
# [5] = system: wild-type HCAR2; type: binding, human; design: SPR sensorgram response, Acifran-HCAR2: unit not given here
# [6] = biological target: T3, HCAR3 R111A (Homo sapiens, UniProt P49019, R111A); test: cAMP assay, HCAR3 R111A mutant; type: cell-based; conditions: HCAR3 R111A vs WT
# T3 construct: Full-length variants of HCAR3 and HCAR2, including specific point mutations, were incorporated into pcDNA3.1 vectors; FLAG; expressed in transfected cells
# T3 sequence (P49019 whole entry R111A): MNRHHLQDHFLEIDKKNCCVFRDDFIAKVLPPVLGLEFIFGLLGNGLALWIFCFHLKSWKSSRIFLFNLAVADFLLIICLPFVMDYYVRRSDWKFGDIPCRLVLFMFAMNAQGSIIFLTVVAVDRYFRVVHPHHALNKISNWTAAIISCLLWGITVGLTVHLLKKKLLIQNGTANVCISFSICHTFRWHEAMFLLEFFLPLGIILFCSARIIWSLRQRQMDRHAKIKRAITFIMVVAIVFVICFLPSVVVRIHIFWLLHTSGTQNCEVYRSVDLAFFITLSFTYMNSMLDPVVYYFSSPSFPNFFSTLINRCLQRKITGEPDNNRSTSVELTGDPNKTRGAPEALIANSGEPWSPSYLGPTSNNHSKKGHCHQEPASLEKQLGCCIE
# Description: Full-length variants of HCAR3 and HCAR2, including specific point mutations, were incorporated into pcDNA3.1 vectors for conducting cAMP assays. The cAMP levels were quantified using the cAMP-Gi kit from Perkin Elmer (model TRF0263), adhering to the manufacturer’s guidelines. […] Cells were transiently transfected with either wild-type or mutant HCAR3 plasmids (at a dosage of 500 ng per well in a 24-well format) using Lipofectamine 3000 (Invitrogen). After 36 hours, the cells, once rinsed with PBS, were treated with a stimulation buffer,including 500 μM IBMX, and incubated for 30 min in a 384-well plate maintained at 37 °C, with a seeding density of 4,000 cells per well. This step was followed by the addition of 12 μM forskolin to each well, with the incubation continuing for an additional 45 min at the same temperature. Subsequently, each well received 5 μL of the cAMP Eu-cryptate solution and the anti-cAMP-d2 solution, and the mixture was incubated for 1 hour at room temperature [45]. Fluorescence readings at 620/665 nm were then gathered using a multimode plate reader (Perkin Elmer EnVision 2105) [46]. The acquired data were analyzed using GraphPad Prism version 9.0, with statistical significance set at p < 0.05. All experimental procedures were replicated three times to ensure accuracy.
# T2 sequence (Q8TDS4 whole entry): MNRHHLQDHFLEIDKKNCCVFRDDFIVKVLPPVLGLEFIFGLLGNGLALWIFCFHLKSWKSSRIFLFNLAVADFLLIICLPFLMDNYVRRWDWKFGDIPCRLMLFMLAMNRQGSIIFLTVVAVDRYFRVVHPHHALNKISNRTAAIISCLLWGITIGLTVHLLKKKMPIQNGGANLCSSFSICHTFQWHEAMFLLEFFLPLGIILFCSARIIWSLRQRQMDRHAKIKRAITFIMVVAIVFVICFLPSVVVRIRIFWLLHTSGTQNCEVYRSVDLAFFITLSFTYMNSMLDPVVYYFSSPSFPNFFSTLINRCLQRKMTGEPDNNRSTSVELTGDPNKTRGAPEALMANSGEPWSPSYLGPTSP
# T1 sequence (P49019 whole entry): as the sequence (P49019 whole entry R111A) above, with A111R counted along it
structure (smiles),measurement,setting,value
"O=C(O)c1cc(N(Cc2ccsc2)Cc2ccsc2)n[nH]1 [6O, 3-[bis(thiophen-3-ylmethyl)amino]-1H-pyrazole-5-carboxylic acid]",higher affinity to HCAR3 than to HCAR2,[1],at least 100 fold
same,affinity difference to HCAR3 compared to HCAR2,[1],"100- to 1,000 fold"
same,efficacy among the four ligands by surface plasmon resonance,[2],highest efficacy among these four ligands
same,cAMP response (normalized),"[3]; 6O-HCAR2 N86L, log[M] -3, Fig. S14B",75.8023 and 73.3702 and 70.1872
same,cAMP response (normalized),"[3]; 6O-HCAR2 N86L, log[M] -4, Fig. S14B",70.0938 and 69.3817 and 72.4279
same,cAMP response (normalized),"[3]; 6O-HCAR2 N86L, log[M] -5, Fig. S14B",77.2869 and 68.2771 and 76.7503
same,cAMP response (normalized),"[3]; 6O-HCAR2 N86L, log[M] -6, Fig. S14B",87.0105 and 88.7719 and 89.0756
same,cAMP response (normalized),"[3]; 6O-HCAR2 N86L, log[M] -7, Fig. S14B",92.1091 and 85.2704 and 84.4838
same,cAMP response (normalized),"[3]; 6O-HCAR2 N86L, log[M] -8, Fig. S14B",95.6219 and 96.9675 and 90.6554
same,cAMP response (normalized),"[3]; 6O-HCAR2 N86L, log[M] -9, Fig. S14B",95.5893 and 94.7012 and 97.44
same,cAMP response (normalized),"[3]; 6O-HCAR2 N86L, log[M] -10, Fig. S14B",99.7701 and 103.601 and 102.183
"CC1(c2ccccc2)OC(C(=O)O)=CC1=O (stereo not drawn) [Acifran, acifran]","SPR sensorgram response, Acifran-HCAR2","[4]; acifran concentration 0.025 (unit not given), c2 value 159.6 (head printed log[M])",-15.5002
same,"SPR sensorgram response, Acifran-HCAR2","[4]; acifran concentration 0.025 (unit not given), c2 value 160.6 (head printed log[M])",-15.3633
same,"SPR sensorgram response, Acifran-HCAR2","[4]; acifran concentration 0.05 (unit not given), c2 value 159.6 (head printed log[M])",-16.3767
same,"SPR sensorgram response, Acifran-HCAR2","[4]; acifran concentration 0.1 (unit not given), c2 value 159.6 (head printed log[M])",-16.3472
same,"SPR sensorgram response, Acifran-HCAR2","[4]; acifran concentration 0.4 (unit not given), c2 value 159.6 (head printed log[M])",-15.8456
same,affinity difference acifran-HCAR2 vs acifran-HCAR3,[5],~ 100 fold
same,cAMP response (normalized),"[3]; Acifran-HCAR2 N86L, log[M] -3, Fig. S12E",51.1208 and 61.7941 and 63.8756
same,cAMP response (normalized),"[3]; Acifran-HCAR2 N86L, log[M] -4, Fig. S12E",60.2042 and 54.7738 and 52.0221
same,cAMP response (normalized),"[3]; Acifran-HCAR2 N86L, log[M] -5, Fig. S12E",64.2273 and 75.5651 and 74.1332
same,cAMP response (normalized),"[3]; Acifran-HCAR2 N86L, log[M] -6, Fig. S12E",84.0136 and 74.6749
same,cAMP response (normalized),"[3]; Acifran-HCAR2 N86L, log[M] -7, Fig. S12E",89.2308 and 93.0182
same,cAMP response (normalized),"[3]; Acifran-HCAR2 N86L, log[M] -8, Fig. S12E",92.6771 and 91.0418
same,cAMP response (normalized),"[3]; Acifran-HCAR2 N86L, log[M] -9, Fig. S12E",100.347 and 91.8401 and 97.0308
same,cAMP response (normalized),"[3]; Acifran-HCAR2 N86L, log[M] -10, Fig. S12E",103.679
"CC(C)n1nnc2cc(C(=O)O)ccc21 [IBC293, 1-propan-2-ylbenzotriazole-5-carboxylic acid]",higher affinity to HCAR3 than to HCAR2,[1],at least 100 fold
same,affinity difference to HCAR3 compared to HCAR2,[1],"100- to 1,000 fold"
same,effect of R111A mutation on agonist action at HCAR3 (cAMP assay),[6],barely interfered HCAR3 activation
same,cAMP response (normalized),"[3]; IBC293-HCAR2 N86L, log[M] -3, Fig. S14C",79.8778 and 75.4919 and 74.9151
same,cAMP response (normalized),"[3]; IBC293-HCAR2 N86L, log[M] -4, Fig. S14C",76.5789 and 72.1623 and 89.1848
same,cAMP response (normalized),"[3]; IBC293-HCAR2 N86L, log[M] -5, Fig. S14C",83.4897 and 75.4819 and 86.0148
same,cAMP response (normalized),"[3]; IBC293-HCAR2 N86L, log[M] -6, Fig. S14C",92.474 and 94.1647 and 90.5718
same,cAMP response (normalized),"[3]; IBC293-HCAR2 N86L, log[M] -7, Fig. S14C",100.025 and 101.905 and 97.6855
same,cAMP response (normalized),"[3]; IBC293-HCAR2 N86L, log[M] -8, Fig. S14C",96.4886 and 103.749 and 98.8962
same,cAMP response (normalized),"[3]; IBC293-HCAR2 N86L, log[M] -9, Fig. S14C",106.585 and 93.0489 and 96.2716
same,cAMP response (normalized),"[3]; IBC293-HCAR2 N86L, log[M] -10, Fig. S14C",101.501 and 101.566 and 98.9795
"O=C(O)C(O)Cc1ccccc1 [PLA, D-phenyllactic acid]",affinity difference to HCAR3 compared to HCAR2,[1],"100- to 1,000 fold"
same,cAMP response (normalized),"[3]; PLA-HCAR2 N86L, log[M] -3, Fig. S14D",52.7872 and 58.3693 and 59.0285
same,cAMP response (normalized),"[3]; PLA-HCAR2 N86L, log[M] -4, Fig. S14D",77.5234 and 72.7009 and 60.409
same,cAMP response (normalized),"[3]; PLA-HCAR2 N86L, log[M] -5, Fig. S14D",76.3988 and 76.6951 and 70.3605
same,cAMP response (normalized),"[3]; PLA-HCAR2 N86L, log[M] -6, Fig. S14D",100.996 and 89.6375 and 92.8244
same,cAMP response (normalized),"[3]; PLA-HCAR2 N86L, log[M] -7, Fig. S14D",92.0146 and 97.7923 and 90.5493
same,cAMP response (normalized),"[3]; PLA-HCAR2 N86L, log[M] -8, Fig. S14D",94.5951 and 98.3127 and 96.313
same,cAMP response (normalized),"[3]; PLA-HCAR2 N86L, log[M] -9, Fig. S14D",99.4667 and 89.0551 and 95.4388
same,cAMP response (normalized),"[3]; PLA-HCAR2 N86L, log[M] -10, Fig. S14D",94.992 and 94.7429 and 103.357

# — PMC12685177, “Structures of G-protein coupled receptor HCAR3 in complex with selective agonists reveal the basis for ligand recognition and selectivity” (PLOS Biology, 2025)
